In patent US8562974B2, “Method for expanding Cd4+ Cd25+ T regulator cells” (Fondazione Telethon, priority 2005, dated 2013):

What was measured:
DO11.10 tg CD4^+ T cells [1] = experiment: CD4+CD25bright T cell content after 3 rounds of stimulation, FACS; type: cell-based, mice
Experimental: (§1) Cells were stained with the indicated Abs (all from BD Biosciences, Mountain View, Calif.), and were analyzed with a FACScan flow cytometer equipped with CellQuest software (BD Biosciences). To obtain highly purified CD4^+CD25^+/− T cells, CD4^+ T cells were first purified from splenocytes isolated from Balb/c mice by positive selection with αCD4 mAb-coated microbeads (Miltenyi Biotec, Bergisch Gladbach, Germany). Thereafter, CD4^+ T cells were stained with Cy-coupled αCD4 and PE-coupled αCD25 mAbs (BD Biosciences) and CD4^+CD25^+ T cells were sorted by FACS-sorting on a FAC-Star (BD Biosciences).
1×10^6 CD4^+ T cells isolated from spleen of DO11.10 tg mice were stimulated with 4×10^6 APC from Balb/c mice (i.e. total splenocytes irradiated 3000 Rad) and 0.6 μM OVA323-339peptide (OVA) (Primm, Milano, Italy). Three rounds of stimulation of 7 days each were performed. IL-2 (BD Biosciences) was added starting from the second round of stimulation at 50 U/ml. Alternatively, 1×10^6 CD4^+ T cells isolated from spleen of Balb/c mice were stimulated with coated 10 μg/ml of αCD3 and soluble 1 μg/ml of αCD28 mAbs (BD Biosciences). Cells were cultured in the presence of medium alone or 100 nM rapamycin (Sigma, St Louis, Mo.). Three rounds of stimulation of 7 days each were performed. IL-2 (BD Biosciences) was added starting from the second round of stimulation at 50 U/ml. In separate experiments, sorted CD4^+CD25^+ T cells isolated from spleen of Balb/c mice were stimulated with coated 10 μg/ml of αCD3, soluble 1 μg/ml of αCD28 mAbs (BD Biosciences) and 1000 U/ml of IL-2. […]
After 3 rounds of stimulation with APC+OVA (medium) or APC+OVA+rapamycin (rapamycin), DO11.10 tg CD4^+ T cells were left resting for one week with no further stimulation in the presence of IL-2 (50 U/ml). After seven days cells were analyzed by FACS. […]
1×10^6 DO11.10 tg CD4^+ T cells (containing 70.000 CD4^+CD25^bright T cells) were cultured with APC+OVA (medium, white bar) or APC+OVA+rapamycin (dotted bar, rapamycin). After 3 rounds of stimulation, the total number of CD4^+CD25^brightT cells was determined by FACS.

DO11.10 tg CD4^+ T cells [2] = experiment: Re-stimulation without compound after 3 rounds, CFSE dilution (anergy); type: cell-based, mice; conditions: after 3 rounds with rapamycin, re-stimulated with APC+OVA without rapamycin and IL-2, 5 days
Experimental: The proportion of CFSE^+ cells proliferating in vitro was calculated as described elsewhere (Lyons 1994). Briefly, the number of cells (events) in a given cycle (division: n) was divided by 2 raised to power n, to calculate the percentage of original precursor cells from which they arose. The sum of original precursors from division 1 to 6 represents the number of precursors cells which proliferated. The percent of CFSE^+ divided cells was calculated by [(# of precursors that proliferated1-6/# of total precursors0-6)×100].
In more detail in relation to FIG. 1C, after 3 rounds of stimulation with APC+OVA (medium) or APC+OVA+rapamycin (rapamycin), DO11.10 tg CD4^+T cells were stained with CFSE and re-stimulated with APC+OVA in the absence of the compound and of exogenous IL-2. CFSE dilution was monitored 5 days after activation.

DO11.10 tg CD4^+ T cells [3] = experiment: Activation induced cell death (AICD) by annexin V binding, FACS; type: cell-based, mice; conditions: APC+OVA, 100 nM rapamycin, 24 and 72 hours, vs control cells
Experimental: (§2) 1×10^6 CD4^+ T cells isolated from spleen of DO11.10 tg mice were stimulated with 4×10^6 APC from Balb/c mice (i.e. total splenocytes irradiated 3000 Rad) and 0.6 μM OVA323-339peptide (OVA) (Primm, Milano, Italy). Three rounds of stimulation of 7 days each were performed. IL-2 (BD Biosciences) was added starting from the second round of stimulation at 50 U/ml. Alternatively, 1×10^6 CD4^+ T cells isolated from spleen of Balb/c mice were stimulated with coated 10 μg/ml of αCD3 and soluble 1 μg/ml of αCD28 mAbs (BD Biosciences). Cells were cultured in the presence of medium alone or 100 nM rapamycin (Sigma, St Louis, Mo.). Three rounds of stimulation of 7 days each were performed. IL-2 (BD Biosciences) was added starting from the second round of stimulation at 50 U/ml. In separate experiments, sorted CD4^+CD25^+ T cells isolated from spleen of Balb/c mice were stimulated with coated 10 μg/ml of αCD3, soluble 1 μg/ml of αCD28 mAbs (BD Biosciences) and 1000 U/ml of IL-2. Cells were cultured in the presence of medium alone or 100 nM rapamycin (Sigma, St Louis, Mo.). 1000 U/ml of IL-2 was added at the beginning of each new stimulation.
In more detail, DO11.10 tg CD4^+ T cells were cultured with APC+OVA (medium) or APC+OVA+rapamycin (rapamycin) and AICD was monitored by FACs after 24 and 72 hours of culture. Percentage of PI^+-annexinV^+ cells is indicated in each dot plot.

[4] = tested on: Balb/c CD4^+CD25^+ T cells; experiment: Culture of sorted CD4+CD25+ T cells with αCD3+αCD28+1000 U/ml IL-2: fold expansion and CD25bright content; type: cell-based, mice
Experimental: as §1
as §2, with “stimulation. […]” for “stimulation.”
Fold expansion of Balb/c CD4^+CD25^+ T cells 1, 2, and 3 weeks after culture in the presence of αCD3+αCD28+1000 U/ml IL-2 (medium, white bars) or αCD3+αCD28+1000 U/ml IL-2+rapamycin (rapamycin, dotted bars) was evaluated by direct cell counts. […] After seven days, cells were analyzed by FACS. […]

NOD CD4^+ T cells = experiment: Ex vivo expansion of NOD CD4+ T cells with rapamycin: regulatory markers; type: cell-based; conditions: pre-diabetic 11 week old NOD mice, three rounds of stimulation
Experimental: CD4^+ T cells were obtained by incubation of splenocytes from pre-diabetic or diabetic NOD mice with αCD4 mAb-coated microbeads and applied onto MiniMacs columns (Miltenyi Biotec). The average purity was 95%. 1×10^6 CD4^+ T cells isolated from spleen of NOD mice were stimulated with coated 10 μg/ml of αCD3 and soluble 1 μg/ml of αCD28 mAbs (BD Biosciences). Cells were cultured in the presence of medium alone or 100 nM rapamycin (Sigma, St Louis, Mo.). Three rounds of stimulation of 7 days each were performed. IL-2 (BD Biosciences) was added starting from the second round of stimulation at 100 U/ml.
In this Example, we attempted to generate ex vivo Tr cells from non obese diabetic (NOD) mice. Spontaneously autoimmune diabetes in NOD mice mainly results from quantitative and qualitative changes in autoaggressive T effector cells. Older mice indeed harbor diabetogenic T cells that are progressively less prone to Tr cells-mediated inhibition (You et al. Diabetes, 2005). We tested whether rapamycin could expand functional Tr cells from NOD mice and whether these expanded T cells have a regulatory function. CD4^+ T cells were isolated from the spleen of pre-diabetic 11 week old NOD mice and were activated in vitro with anti-CD3 and CD28 mAbs in the presence of medium or rapamycin.

CD4^+ T cells = experiment: In vitro treatment of CD4+ T cells with rapamycin: CD4+CD25+ Tr cell content; type: cell-based; conditions: in vitro treatment of CD4+ T cells (5-10% Tr cells at start)
DO11.10 tg CD4^+ T cells [5] = experiment: Fold expansion of T cells over three rounds of APC+OVA stimulation, direct cell counts; type: cell-based, mice
Experimental: as §2
Fold expansion of T cells was determined after each round of stimulation. […] Rapamycin binds to FKBP12 and the formed complex inhibits the function of mTOR, which is involved in a broad range of physiological processes linked to the control of cell-cycle. […]

FOXP3 mRNA = experiment: FOXP3 quantitative PCR; conditions: CD4+ T cells exposed to rapamycin
Text: Total RNA was extracted with Eurozol (Euroclone, Switzerland), and cDNA was synthesized with High Capacity cDNA Archive Kit (Applied Biosystems, New Jersey, USA). Levels of FOXP3 mRNA was quantified using Assay on Demand real-time PCR kits (Applied Biosystems, New Jersey, USA) with TaqMan Universal PCR Master Mix (Applied Biosystems, New Jersey, USA). Levels of 18s rRNA was quantified as internal control by using TaqMan PDAR Eukaryotic 18s Endogenus Controls (Applied Biosystems, assay ID: Mm00475156m1). Samples were run in duplicate, and relative expression of FOXP3 was determined by normalizing to 18 s expression in each set of samples in order to calculate a fold-change in value.
To address this question, CD4^+ T cells depleted of the CD25^+ Tr cells were cultured for three weeks in the presence or absence of rapamycin. […] The cultured cells were added in equal number to naïve KJ1-26^+CFSE^+ cells (10^5:10^5) and proliferation was monitored by CFSE dilution. […] Relative levels of mRNA FOXP3 were determined by real time quantitative RT-PCR in CD4^+ (left panel) or CD4^+CD25^− (right panel) T cells repetitively activated in vitro with or without rapamycin. The amounts of FOXP3 mRNA are expressed as relative to that in splenocytes depleted of CD4^+CD25^+ T cells (which was given an arbitrary value of 1). […]

[6] = tested on: CD4^+ T cells isolated from PBMCs; experiment: TCR-mediated proliferation and anergy of human CD4+ T cells, CFSE; type: cell-based
Experimental: CD4^+ T cells isolated from PBMCs of healthy subjects or T1D patients were activated with plate bound anti-CD3 (10 μg/ml) and soluble of anti-CD28 (1 μg/ml) mAbs (BD Biosciences). Cells were cultured in the presence of medium (x-vivo 10) alone or with 100 nM rapamycin (Sigma, St Louis, Mo.). Three round of stimulations of 7 days each were performed. IL-2 (BD Biosciences) was added starting from the second round of stimulation at 100 U/ml.
CD4^+ T cells were stained with CFSE either at the beginning of the culture (1st week), or at the end of one (2nd week), or three (4th week) round of stimulations. CFSE^+ CD4^+ T cells were activated in vitro in the presence of anti-CD3+anti-CD28 mAbs in the presence or absence of 100 nM rapamycin. CFSE dilution was monitored 7 days after activation.
After 3 round of stimulations with anti-CD3+anti-CD28 mAbs (T medium) or anti-CD3+anti-CD28 mAbs+rapamycin (T rapamycin), CD4^+ T cells were stained with CFSE and re-stimulated with anti-CD3+anti-CD28 mAbs in the absence of the compound and of exogenous IL-2. CFSE dilution was monitored 7 days after activation. Numbers indicate the percentage of dividing cells.

[7] = tested on: CD4^+CD25^− and CD4^+CD25^+ T cells; experiment: Proliferation of sorted CD4+CD25- and CD4+CD25+ T cells with anti-CD3+anti-CD28+IL-2, CFSE; type: cell-based, human; conditions: 100 nM rapamycin, 7 days
Experimental: CD4^+CD25^− and CD4^+CD25^bright T cells were FACS sorted. Subsequently, sorted CD4^+CD25^− T cells were stained with CSFE and sorted CD4^+CD25^+ T cells were added back to the same amount present in unsorted CD4^+ T cells (5%) (FIG. 13, left panel). Alternatively, sorted CD4^+CD25^+ T cells were stained with CSFE and sorted CD4^+CD25^− T cells were added back to the same amount present in unsorted CD4^+ T cells (95%) (right panel of FIG. 13). The two distinct CFSE stained cell populations were activated with anti-CD3+anti-CD28 mAbs+IL-2 in the presence or absence of 100 nM rapamycin. CFSE dilution was monitored 7 days after activation. Numbers indicate the percentage of CFSE^+ dividing cells.

DO11.10 tg CD4^+ T cells [8] = experiment: Cell size by FACS (FSC vs SSC) after 3 rounds of stimulation; type: cell-based, mice; conditions: 3 weeks activation with rapamycin, one week rest with IL-2 50 U/ml
Experimental: After 3 rounds of stimulation with APC+OVA (medium) or APC+OVA+rapamycin (rapamycin), DO11.10 tg CD4^+ T cells were left resting for one additional week with no further stimulation in the presence of IL-2 (50 U/ml). At the end of the seven days cell size was analyzed by FACS by plotting FSC vs SSC parameters. Small (continuous line) and big (dotted line) cells are circled. Naïve CD4^+ T cells from a DO11.10 tg mouse were used as control.

Question: Which “enrichment in CD4+CD25bright T cells” value (DO11.10 tg CD4^+ T cells [1]; T cells activated in the presence of rapamycin) does the source give for `CO[C@H]1C[C@@H]2CC[C@@H](C)[C@@](O)(O2)C(=O)C(=O)N2CCCC[C@H]2C(=O)O[C@H]([C@H](C)C[C@@H]2CC[C@@H](O)[C@H](OC)C2)CC(=O)[C@H](C)/C=C(\C)[C@@H](O)[C@@H](OC)C(=O)[C@H](C)C[C@H](C)/C=C/C=C/C=C/1C` [rapamycin] here?
Answer: highly enriched in

Question: And the “content of CD4+CD25bright Tr cells” value (DO11.10 tg CD4^+ T cells [1]; cells exposed to rapamycin, 3 rounds APC+OVA)?
Answer: around 60%

Question: And the “total number of CD4+CD25bright T cells recovered” value (DO11.10 tg CD4^+ T cells [1]; three weeks of culture, repetitive Ag-stimulation)?
Answer: markedly superior to that of control cultures

Question: And the “ability to proliferate on re-stimulation” value (DO11.10 tg CD4^+ T cells [2])?
Answer: retained their ability to proliferate

Question: What about the “apoptosis (AICD) upon in vitro activation” value (DO11.10 tg CD4^+ T cells [3]) of the same molecule?
Answer: neither increase nor reduction of apoptosis was observed

Question: And the “kinetic of proliferation (fold expansion)” value ([4]; 100 nM rapamycin)?
Answer: delayed kinetic of proliferation compared to control cells

Question: What about the expansion ([4]; starting from the third week of culture) of the same molecule?
Answer: greatly expanded

Question: What about the “percentage of CD4+CD25bright T cells” value ([4]; three weeks, vs control cells) of the same molecule?
Answer: higher percentage of

Question: What about the “enrichment in CD4+CD62L+ and CD45RBlow cells” value (NOD CD4^+ T cells) of the same molecule?
Answer: highly enriched in

Question: What about the “increase of the CD4+CD25+ Tr cell content” value (CD4^+ T cells) of the same molecule?
Answer: 20 fold

Question: And the “kinetic of proliferation (fold expansion)” value (DO11.10 tg CD4^+ T cells [5]; APC+OVA, 100 nM rapamycin, weeks 1-3)?
Answer: delayed kinetic of proliferation compared to control cells

Question: What about the “number of T cells recovered” value (DO11.10 tg CD4^+ T cells [5]; end of the third week of culture) of the same molecule?
Answer: the same number of T cells was recovered in control- and rapamycin-cultures

Question: And the FOXP3 expression (FOXP3 mRNA)?
Answer: enhanced

Question: And the T cell anergy ([6]; after 3 rounds, re-stimulated without compound and IL-2)?
Answer: Does Not Induce T Cell Anergy

Question: What about the “TCR-mediated proliferation of CD4+ T cells” value ([6]; anti-CD3+anti-CD28, 100 nM rapamycin) of the same molecule?
Answer: Strongly Reduces TCR-Mediated Proliferation

Question: What about the “TCR-mediated proliferation of CD4+CD25- vs CD4+CD25+ T cells” value [7] of the same molecule?
Answer: Selectively Blocks TCR-Mediated Proliferation of CD4^+CD25^− T Cells but not of CD4^+CD25^+ Tr Cells

Question: And the “cell size and shape” value (DO11.10 tg CD4^+ T cells [8])?
Answer: smaller and displayed a more round-like shape than control cells
